Data reported in US20040171680A1, “Treating Syndrome X with substituted tetralins and indanes” (priority 2002, published 2004).

Biological target: T1, PPARα (Rattus norvegicus, UniProt P37230)
T1 construct: H4IIE rat hepatoma cell line was obtained from ATCC; host or cells: H4IIE rat hepatoma cells
T1 sequence (P37230 1-468): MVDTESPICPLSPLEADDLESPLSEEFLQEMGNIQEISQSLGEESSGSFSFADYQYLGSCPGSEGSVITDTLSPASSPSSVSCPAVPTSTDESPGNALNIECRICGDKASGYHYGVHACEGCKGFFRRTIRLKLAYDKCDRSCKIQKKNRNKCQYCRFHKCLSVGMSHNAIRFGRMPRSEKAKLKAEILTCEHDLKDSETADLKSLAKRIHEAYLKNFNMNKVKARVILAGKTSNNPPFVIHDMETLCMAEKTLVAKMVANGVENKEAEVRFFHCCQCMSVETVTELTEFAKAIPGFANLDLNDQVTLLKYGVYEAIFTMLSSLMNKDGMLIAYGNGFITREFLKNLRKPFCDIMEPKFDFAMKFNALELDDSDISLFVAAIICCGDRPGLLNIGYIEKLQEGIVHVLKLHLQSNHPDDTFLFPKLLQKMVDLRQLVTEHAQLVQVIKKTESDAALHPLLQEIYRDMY
Test: HD bDNA Assay (HD gene induction)
Type: cell-based
Settings: in section F; target not named there, values match the PPARα column; read-out: EC50
Summary of the method: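 H4IIE rat hepatoma cells (~100,000/well) treated 24 hours at 37° C in low-serum medium (5% charcoal/dextran-treated calf serum) with compounds. HD mRNA quantified by branched DNA luminescence assay; EC50's from sigmoidal non-linear regression.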

- EC50: 10 nM
SMILES: CCN(C(=O)Nc1ccc(OC(F)(F)F)cc1)C1CCc2cc(SC(C)(C)C(=O)O)c(F)cc2C1 (stereo not shown) [Example 50, 2-{6-[1-Ethyl-3-(4-trifluoromethoxyphenyl)ureido]-3-fluoro-5,6,7,8-tetrahydronaphthalen-2-ylsulfanyl}-2-methylpropionic acid]
